According to US9340513B2, “Propenoate derivatives of betulin” (GlaxoSmithKline LLC, priority 2011, dated 2016):

Key:
HIV = conditions: cited from earlier work
HIV-1 (strain IIIB) = test: MT4 Cell Antiviral Assay; format: cell-based; conditions: Human immunodeficiency virus 1, 120 h; HIV-1 strain IIIB in MT4 cells, 5 days, Cell Titer-Glo; 50% decrease in HIV-induced cytopathic effect
Outline: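 MT4 cells infected 1 h with HIV-1 IIIB (300×TCID50/million cells), then cultured 5 days with serially diluted compound; mock-infected cells run in parallel for cytotoxicity. Luminescence read-out. IC50 = concentration restoring 50% of infected-cell growth relative to uninfected controls, excluding concentrations leaving ≤79% of uninfected cells.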

SMILES	mean reduction of HIV viral load (HIV; patients with trough levels >=20 μg/mL and without key baseline Gag polymorphisms at Q369, V370 or T371) [log10/mL]	viral load reduction versus patients without Gag polymorphisms (HIV; users with Gag polymorphisms at Q369, V370 or T371)	IC50 (HIV-1 (strain IIIB)) [nM]
C=C(C)[C@@H]1CC[C@]2(C(=O)O)CC[C@]3(C)[C@H](CC[C@@H]4[C@@]5(C)CC[C@H](OC(=O)CC(C)(C)C(=O)O)C(C)(C)[C@@H]5CC[C@]43C)[C@@H]12 [Bevirimat]	1.3	significantly lower load reductions	
CC(C)C1=C2[C@H]3CC[C@@H]4[C@@]5(C)CC[C@H](OC(=O)CC(C)(C)C(=O)O)C(C)(C)[C@@H]5CC[C@@]4(C)[C@]3(C)CC[C@@]2(/C=C/C(=O)NC2CCCCC2)CC1=O [Example 30, 4-(((3aS,5aR,5bR,7aR,9S,11aR,11bR,13aS)-3a-((E)-3-(Cyclohexylamino)-3-oxoprop-1-en-1-yl)-1-isopropyl-5a,5b,8,8,11a-pentamethyl-2-oxo-3,3a,4,5,5a,5b,6,7,7a,8,9,10,11,11a,11b,12,13,13a-octadecahydro-2H-cyclopenta[a]chrysen-9-yl)oxy)-2,2-dimethyl-4-oxobutanoic acid]			10 to 250
CC(C)C1=C2[C@H]3CC[C@@H]4[C@@]5(C)CC[C@H](OC(=O)CC(C)(C)C(=O)O)C(C)(C)[C@@H]5CC[C@@]4(C)[C@]3(C)CC[C@@]2(/C=C/C(=O)N[C@H](C)c2cccc(Cl)c2)CC1=O [Example 31, 4-(((3aS,5aR,5bR,7aR,9S,11aR,11bR,13aS)-3a-((E)-3-(((R)-1-(3-Chlorophenyl)ethyl)amino)-3-oxoprop-1-en-1-yl)-1-isopropyl-5a,5b,8,8,11a-pentamethyl-2-oxo-3,3a,4,5,5a,5b,6,7,7a,8,9,10,11,11a,11b,12,13,13a-octadecahydro-2H-cyclopenta[a]chrysen-9-yl)oxy)-2,2-dimethyl-4-oxobutanoic acid]			10 to 250
CC(C)C1=C2[C@H]3CC[C@@H]4[C@@]5(C)CC[C@H](OC(=O)CC(C)(C)C(=O)O)C(C)(C)[C@@H]5CC[C@@]4(C)[C@]3(C)CC[C@@]2(/C=C/C(=O)NCCO)CC1=O [Example 32, 4-(((3aS,5aR,5bR,7aR,9S,11aR,11bR,13aS)-3a-((E)-3-((2-Hydroxyethyl)amino)-3-oxoprop-1-en-1-yl)-1-isopropyl-5a,5b,8,8,11a-pentamethyl-2-oxo-3,3a,4,5,5a,5b,6,7,7a,8,9,10,11,11a,11b,12,13,13a-octadecahydro-2H-cyclopenta[a]chrysen-9-yl)oxy)-2,2-dimethyl-4-oxobutanoic acid]			10 to 250
CC(C)C1=C2[C@H]3CC[C@@H]4[C@@]5(C)CC[C@H](OC(=O)CC(C)(C)C(=O)O)C(C)(C)[C@@H]5CC[C@@]4(C)[C@]3(C)CC[C@@]2(/C=C/C(=O)NCC2CCCCC2)CC1=O [Example 33, 4-(((3aS,5aR,5bR,7aR,9S,11aR,11bR,13aS)-3a-((E)-3-((Cyclohexylmethyl)amino)-3-oxoprop-1-en-1-yl)-1-isopropyl-5a,5b,8,8,11a-pentamethyl-2-oxo-3,3a,4,5,5a,5b,6,7,7a,8,9,10,11,11a,11b,12,13,13a-octadecahydro-2H-cyclopenta[a]chrysen-9-yl)oxy)-2,2-dimethyl-4-oxobutanoic acid]			< 10
CC(C)C1=C2[C@H]3CC[C@@H]4[C@@]5(C)CC[C@H](OC(=O)CC(C)(C)C(=O)O)C(C)(C)[C@@H]5CC[C@@]4(C)[C@]3(C)CC[C@@]2(/C=C/C(=O)N[C@@H](C)c2cccc(Cl)c2)CC1 [Example 34, 4-(((3aR,5aR,5bR,7aR,9S,11aR,11bR,13aS)-3a-((E)-3-(((S)-1-(3-Chlorophenyl)ethyl)amino)-3-oxoprop-1-en-1-yl)-1-isopropyl-5a,5b,8,8,11a-pentamethyl-3,3a,4,5,5a,5b,6,7,7a,8,9,10,11,11a,11b,12,13,13a-octadecahydro-2H-cyclopenta[a]chrysen-9-yl)oxy)-2,2-dimethyl-4-oxobutanoic acid]			10 to 250
